One compound from patent US20230414615A1, “PYRIMIDINONE COMPOUNDS FOR TREATING ACUTE INFLAMMATION” (TES Pharma S.r.l., priority 2022, published 2023) can be followed below.

One assay deals with Kupffer cells. Description: NAD+ biosynthesis in Kupffer cells. The class given is cell-based.
For another assay, the system named is C57BL/6 mice. Nature of the assay: LPS-induced systemic inflammation in mice, survival. The note with it: 50 mg/kg dosed daily, LPS 15 mg/kg. The class given is in vivo, mouse. The method, then:
Male C57/6 mice (12-15 weeks old) (obtained from Charles River Laboratories) were housed under a 12 h/12 h light/dark cycle with free access to water and standard food. The mice were divided into four groups: control, control+ACMSD inhibitor, LPS, and LPS+the ACMSD inhibitor. LPS (Sigma; 20 mg/kg/d and 1 mg/ml in 0.9% normal saline) was intraperitoneally injected, and the same volume of 0.9% normal saline alone was used as controls. A dose of 15 mg/kg IP injection of the ACMSD inhibitor (e.g. compounds of present disclosure, compound of Formula I, Ia, Ib, and II) was used which was intraperitoneally injected immediately after LPS injection. An equal volume of the solvent was injected in the control and LPS alone groups. The mice were sacrificed at 24 h after various treatments and the liver and kidneys were collected for subsequent analysis.
(§1) MATERIALS AND METHODS: Treatment with Compound I-18 in presence of LPS for 24 h has been performed to evaluate anti inflammatory properties and M1 to M2 transition. Renal tubular cells were stimulated with Compound I-18 and TGFβ for 16 hrs to evaluate the expression of genes involved in fibrosis. […] Survival percentage and liver gene modulation has been monitored in Sham groups, LPS and LPS+Compound 1-18 groups (n=8). […] Survival percentage and expression of genes involved in renal inflammation has been monitored.

Assay [1] concerns CLP-induced sepsis model in mice. Nature of the assay: CLP-induced sepsis model in mice (ex-vivo kidney gene expression, survival). Set-up: species or system mouse. The note with it: IP 30 mg/kg/dose. The method, then:
C57BL/6 mice (12-15 weeks old) (obtained from Charles River Laboratories) were anesthetized by intraperitoneal (i.p.) injection of a 1:1 solution of ketamine (75 mg/kg) and xylazine (15 mg/kg) (or pentobarbital (70 mg/kg)). The lower abdomen of the mouse was shaved and the area disinfected with a 70% alcohol swab. Under aseptic conditions, a 1 to 2 cm midline laparotomy was performed and the cecum exposed. The cecum was tightly ligated at the level of the second cecal artery with a 2.0 silk suture, perforated twice with a 22-gauge needle, and after expressing to allow for fecal matter to extrude, returned into the abdomen. The abdominal wall is then closed by planes using a running silk 4-0. Control animals underwent the same laparotomy and externalization of the cecum, but no ligation or perforation was performed. Animals were resuscitated with 1.0 mL of 0.9% normal saline, immediately after surgery via subcutaneous injection and recovered on thermal blankets under monitoring. Animals were then treated with 0.5 ml LRS (Q12 hours SQ for 3 days), ampicillin sulbactam (250 mg/kg Q12 hours IP for 3 days) and analgesic treatment (buprenorphine 0.05 mg/kg for 3 days).
ACMSD inhibitors (e.g. compounds of present disclosure, compound of Formula I, Ia, Ib, and II) were administered at two different timepoints: (a) an early phase timepoint i.e. at the time of CLP and (b) at 24 hours after CLP. […] Blood samples and target organ tissue (liver and kidney) were collected at the time of sacrificing for histology and biomarker measurements.
as §1

For assay [2], the system named is kidney proximal tubular HK2 cells. Nature of the assay: NAD+ biosynthesis in kidney proximal tubular HK2 cells. The class given is cell-based.

SMILES strings stand for the structures.

Consider `N#Cc1c(-c2cccs2)nc(SCc2cccc(CC(=O)O)c2)[nH]c1=O` [Compound I-18], for which, in the assay on Kupffer cells, the “NAD+ biosynthesis” value is “restores”. Also, in the assay with C57BL/6 mice, the “survival in LPS-induced systemic inflammation” value was “promotes survival”. In assay [1], the “expression of IL-1β in ex-vivo kidney tissue samples” value is “reduced”, the “expression of MCP1 in ex-vivo kidney tissue samples” value is recorded as “reduced” and the “expression of TNFα in ex-vivo kidney tissue samples” value is reported as “reduced”. The “NAD+ biosynthesis” value in assay [2] is on record as “restores”.
